test system: beta-TC6 cells; assay: Insulin HTRF assay (relative activity Ar) in beta-TC6 cells; format: cell-based, mouse; conditions: Mus musculus, Beta-TC6, 4 h, insulin HTRF, supernatant of beta-TC6 cells, incubation with test compound at 37°C for 2, 3, 4h; read-out: Ar (relative activity)
Method in brief: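 beta-TC6 cells (15k/well, seeded 24 or 48 h) washed, then exposed to compound in induction buffer (0.5% DMSO final) for 2, 3 or 4 h at 37°C.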

First: CNc1nc2cnc(Nc3ccc(S(C)(=O)=O)cc3)cc2n1-c1ccccc1 [Compound 518, N2-methyl-N6-(4-methylsulfonylphenyl)-1-phenyl-imidazo[4,5-c]pyridine-2,6-diamine]
Second: CNc1nc2cnc(Nc3ccc(OC)cc3)cc2n1Cc1ccccc1 [Compound 531, 1-benzyl-N6-(4-methoxyphenyl)-N2-methyl-imidazo[4,5-c]pyridine-2,6-diamine]
The Emax of the first is higher: 50 to 100% for the first, 30 to 50% for the second.

`CNc1nc2cnc(Nc3cc(OC)c(OC)c(OC)c3)cc2n1Cc1ccco1` [Compound 519, 1-(2-furylmethyl)-N2-methyl-N6-(3,4,5-trimethoxyphenyl)imidazo[4,5-c]pyridine-2,6-diamine] and `CNc1nc2cnc(Nc3ccc(OC)c(OC)c3)cc2n1Cc1ccco1` [Compound 520, N6-(3,4-dimethoxyphenyl)-1-(2-furylmethyl)-N2-methyl-imidazo[4,5-c]pyridine-2,6-diamine] fall in the same range of Emax: 50 to 100% for the first, 50 to 100% for the second.

Compared with `CNc1nc2cnc(Nc3ccc(N4CCOCC4)cc3)cc2n1Cc1ccco1` [Compound 521, 1-(2-furylmethyl)-N2-methyl-N6-(4-morpholinophenyl)imidazo[4,5-c]pyridine-2,6-diamine], `CNc1nc2cnc(Nc3ccc(OC)cc3)cc2n1Cc1ccco1` [Compound 523, 1-(2-furylmethyl)-N6-(4-methoxyphenyl)-N2-methyl-imidazo[4,5-c]pyridine-2,6-diamine] is lower in Emax: over 100% for the first, 50 to 100% for the second.

First: CNc1nc2cnc(Nc3cccc(N(C)C)c3)cc2n1Cc1ccco1 [Compound 522, N6-[3-(dimethylamino)phenyl]-1-(2-furylmethyl)-N2-methyl-imidazo[4,5-c]pyridine-2,6-diamine]
Second: CNc1nc2cnc(Nc3ccc4c(c3)OCO4)cc2n1Cc1ccco1 [Compound 524, N6-(1,3-benzodioxol-5-yl)-1-(2-furylmethyl)-N2-methyl-imidazo[4,5-c]pyridine-2,6-diamine]
The Emax of the first is lower: 30 to 50% for the first, 50 to 100% for the second.

First: CNc1nc2cnc(-c3ccc(N(C)C)cc3)cc2n1Cc1ccccc1 [Compound 525, 1-benzyl-6-(4-dimethylaminophenyl)-N-methyl-imidazo[4,5-c]pyridin-2-amine]
Second: CNc1nc2cnc(-c3cccc(Cl)c3)cc2n1Cc1ccccc1 [Compound 532, 1-benzyl-6-(3-chlorophenyl)-N-methyl-imidazo[4,5-c]pyridin-2-amine]
The Emax of the first is lower: 30 to 50% for the first, 50 to 100% for the second.

`CNc1nc2cnc(Nc3cc(OC)c(OC)c(OC)c3)cc2n1Cc1ccccc1` [Compound 526, 1-benzyl-N2-methyl-N6-(3,4,5-trimethoxyphenyl)imidazo[4,5-c]pyridine-2,6-diamine] and `CNc1nc2cnc(Nc3ccc(OC)c(O)c3)cc2n1Cc1ccccc1` [Compound 536, 5-[[1-benzyl-2-(methylamino)imidazo[4,5-c]pyridin-6-yl]amino]-2-methoxy-phenol] fall in the same range of Emax: 50 to 100% for the first, 50 to 100% for the second.

`CNc1nc2cnc(Nc3ccc(NC(C)=O)cc3)cc2n1Cc1ccccc1` [Compound 527, N-[4-[[1-benzyl-2-(methylamino)imidazo[4,5-c]pyridin-6-yl]amino]phenyl]acetamide] and `CNc1nc2cnc(Nc3cccc(NC(C)=O)c3)cc2n1Cc1ccccc1` [Compound 538, N-[3-[[1-benzyl-2-(methylamino)imidazo[4,5-c]pyridin-6-yl]amino]phenyl]acetamide] fall in the same range of Emax: 50 to 100% for the first, 50 to 100% for the second.

`CNc1nc2cnc(Nc3ccc4c(c3)OCCO4)cc2n1Cc1ccccc1` [Compound 528, 1-benzyl-N6-(2,3-dihydro-1,4-benzodioxin-6-yl)-N2-methyl-imidazo[4,5-c]pyridine-2,6-diamine] and `CNc1nc2cnc(Nc3ccc4c(c3)OCO4)cc2n1Cc1ccccc1` [Compound 534, N6-(1,3-benzodioxol-5-yl)-1-benzyl-N2-methyl-imidazo[4,5-c]pyridine-2,6-diamine] fall in the same range of Emax: 50 to 100% for the first, 50 to 100% for the second.

Compared with `CNc1nc2cnc(-c3ccccc3Oc3ccccc3)cc2n1Cc1ccccc1` [Compound 529, 1-benzyl-N-methyl-6-(2-phenoxyphenyl)imidazo[4,5-c]pyridin-2-amine], `CNc1nc2cnc(-c3cccc(O)c3)cc2n1Cc1ccccc1` [Compound 533, 3-[1-benzyl-2-(methylamino)imidazo[4,5-c]pyridin-6-yl]phenol] is higher in Emax: 30 to 50% for the first, 50 to 100% for the second.

First: CNc1nc2cnc(Nc3cccc(C)c3)cc2n1Cc1ccccc1 [Compound 530, 1-benzyl-N2-methyl-N6-(m-tolyl)imidazo[4,5-c]pyridine-2,6-diamine]
Second: CNc1nc2cnc(Nc3cccc(O)c3)cc2n1Cc1ccccc1 [Compound 535, 3-[[1-benzyl-2-(methylamino)imidazo[4,5-c]pyridin-6-yl]amino]phenol]
The Emax of the first is lower: 30 to 50% for the first, 50 to 100% for the second.

Compared with `CNc1nc2cnc(Nc3ccc(C(=O)N(C)C)cc3)cc2n1Cc1ccccc1` [Compound 537, 4-[[1-benzyl-2-(methylamino)imidazo[4,5-c]pyridin-6-yl]amino]-N,N-dimethyl-benzamide], `CNc1nc2cnc(Nc3ccc(C(N)=O)cc3)cc2n1-c1cccc(C(F)(F)F)c1` [Compound 542, 4-[[2-(methylamino)-1-[3-(trifluoromethyl)phenyl]imidazo[4,5-c]pyridin-6-yl]amino]benzamide] is lower in Emax: 50 to 100% for the first, 30 to 50% for the second.

`CNc1nc2cnc(Nc3cc(OC)c(OC)c(OC)c3)cc2n1-c1cccc(C(F)(F)F)c1` [Compound 539, N2-methyl-1-[3-(trifluoromethyl)phenyl]-N6-(3,4,5-trimethoxyphenyl)imidazo[4,5-c]pyridine-2,6-diamine] and `CNc1nc2cnc(Nc3ccc(OC)c(OC)c3)cc2n1-c1cccc(C(F)(F)F)c1` [Compound 545, N6-(3,4-dimethoxyphenyl)-N2-methyl-1-[3-(trifluoromethyl)phenyl]imidazo[4,5-c]pyridine-2,6-diamine] fall in the same range of Emax: 30 to 50% for the first, 30 to 50% for the second.

First: CNc1nc2cnc(Nc3ccc(NC(C)=O)cc3)cc2n1-c1cccc(C(F)(F)F)c1 [Compound 540, N-[4-[[2-(methylamino)-1-[3-(trifluoromethyl)phenyl]imidazo[4,5-c]pyridin-6-yl]amino]phenyl]acetamide]
Second: CNc1nc2cnc(Nc3ccc(O)cc3)cc2n1-c1cccc(C(F)(F)F)c1 [Compound 541, 4-[[2-(methylamino)-1-[3-(trifluoromethyl)phenyl]imidazo[4,5-c]pyridin-6-yl]amino]phenol]
The Emax of the first is lower: 30 to 50% for the first, 50 to 100% for the second.

`CNc1nc2cnc(Nc3ccc(OC)cc3OC)cc2n1-c1cccc(C(F)(F)F)c1` [Compound 543, N6-(2,4-dimethoxyphenyl)-N2-methyl-1-[3-(trifluoromethyl)phenyl]imidazo[4,5-c]pyridine-2,6-diamine] and `CNc1nc2cnc(Nc3ccc(OC)cc3)cc2n1-c1cccc(C(F)(F)F)c1` [Compound 547, N6-(4-methoxyphenyl)-N2-methyl-1-[3-(trifluoromethyl)phenyl]imidazo[4,5-c]pyridine-2,6-diamine] fall in the same range of Emax: 30 to 50% for the first, 30 to 50% for the second.

First: CNc1nc2cnc(Nc3ccc4c(c3)OCCO4)cc2n1-c1cccc(C(F)(F)F)c1 [Compound 544, N6-(2,3-dihydro-1,4-benzodioxin-6-yl)-N2-methyl-1-[3-(trifluoromethyl)phenyl]imidazo[4,5-c]pyridine-2,6-diamine]
Second: CNc1nc2cnc(Nc3ccc(OC)nc3)cc2n1-c1cccc(C(F)(F)F)c1 [Compound 546, N6-(6-methoxy-3-pyridyl)-N2-methyl-1-[3-(trifluoromethyl)phenyl]imidazo[4,5-c]pyridine-2,6-diamine]
The Emax of the first is higher: 50 to 100% for the first, 30 to 50% for the second.

Source: patent EP2818472A1, “Imidazo[4,5-c]pyridine and pyrrolo[3,2-c]pyridine compounds as G-protein-coupled receptor kinase 5 (GRK5) modulators” (Max-Planck-Gesellschaft zur Förderung der Wissenschaften …, priority 2013, dated 2014)
